Experimental data taken from publication PMC10025185, “A continuous in silico learning strategy to identify safety liabilities in compounds used in the leather and textile industry” (Archives of Toxicology, 2023).
Read-outs that look alike come from different tables or passages of the source.

Legend:
[1] = test system: androgen and oestrogen receptors; test: ED assays of androgen and oestrogen receptors (overall experimental ED result); type: cell-based
Protocol: The transcriptional activation of androgen receptor (AR) assays was carried out by adapting the OECD protocol 458 (OECD [2020]).
MDA-MB-453 cells (8000 cells/well) expressing an AR luciferase reporter were seeded into 384 white plates (Greiner 781098) in culture medium (DMEM (ATCC), 10% foetal bovine serum (Sigma Aldrich), 1% penicillin–streptomycin (Sigma-Aldrich), 75 µg/ml geneticin (Gibco) and incubated overnight at 37 °C 5% CO2 and 95% humidity. After this time, the cell culture medium was discarded and replaced by assay medium (DMEM (ATCC), 0.1% foetal bovine serum (Sigma-Aldrich), and 1% penicillin–streptomycin (Sigma Aldrich)).
For studying a putative agonist effect, compounds were added to the assay plate using an Echo 550 acoustic liquid handler and incubated overnight at 37 °C 5% CO2 and 95% humidity. For studying the putative antagonist effect, compounds were added using an Echo 550 acoustic liquid handler and incubated for 15 min at 37 °C 5% CO2 and 95% humidity. Then, 1 nM 5α-dihydrotestosterone (DHT) was added, and the cell plate was incubated overnight at 37 °C, 5% CO2, and 95% humidity. After compound incubation, the cell medium was removed, 5 µl of lysis buffer 1X (Promega) was added, and the cell plate was incubated with agitation 15 min at room temperature. A freeze–thaw cycle of 10 min at −80 °C and room temperature was performed. Then 25 µl of luciferase assay reagent (Promega) was added and luminescence was determined on an EnSpire plate reader (Perkin Elmer). Data was fitted to a four-parameter sigmoidal model with Prism 5.1 (Graphpad, Inc).
The transcriptional activation of oestrogen receptor (ER) assay was carried out by adapting the OECD protocol 455 (OECD [2021]) and the method of Li et al. ([2013]).
ER luciferase reporter T47D cells (5000 cells/well) were seeded into 384 white plates (Greiner 781098) in culture medium (RPMI 1640 (Thermo Fisher Scientific 52400), 10% foetal bovine serum (Sigma Aldrich F9665), 1% penicillin–streptomycin (Sigma-Aldrich P0781), 75 µg/ml Geneticin (Gibco 10131)) and incubated overnight at 37 °C and 5% CO2. The following day, the cell culture medium was discarded and replaced by assay medium (RPMI 1640 (Thermo Fisher Scientific 52,400), 0.1% foetal bovine serum (Sigma Aldrich F9665), and 1% penicillin–streptomycin (Sigma Aldrich P0781).
The assay was performed as stated before for the AR assay using 17β-estradiol as agonist instead of DHT.
ED was assessed by transactivation in vitro assays to identify agonists and antagonists of the androgen and oestrogen receptors.
Also, the experimental group analysed the endocrine-disrupting activity for the CMR compounds.

[2] = logKow as a measure of bioaccumulation, extracted from public databases; type: physicochemical; conditions: yes/no by logKow, REACH cut off 4,5
[3] = PBT assessment (persistence, bioaccumulation and FET toxicity combined, logical AND); conditions: persistent, bioaccumulative and toxic all positive
Protocol: (§1) Acute toxicity was determined using the OECD236 fish embryo acute toxicity (FET) test (OECD guidelines). To assess the PBT potentiality of the analysed compounds, persistence and the logKow as a measure of bioaccumulation were extracted from public databases (https://comptox.epa.gov/dashboard, and https://echa.europa.eu/es/information-on-chemicals).
Ecotoxicity of selected compounds was screened with the FET assay to determine acute toxicity and using available predictions of persistence and bioaccumulation.

[4] = design: method as in earlier work; conditions: experimental value; ref https://comptox.epa.gov/dashboard, https://echa.europa.eu/es/information-on-chemicals; cited from earlier work
[5] = test system: thyroid system; conditions: cited from earlier work
[6] = test system: CHO-K1 (Chinese hamster ovary cells); type: cell-based
Protocol: The in vitro micronucleus test is a genotoxicity test for the detection of micronuclei in the cytoplasm of interphase cells. Tests were conducted in the presence of the cytokinesis blocker cytochalasin B with three different treatment schedules: (i) short treatment for 6 h; (ii) short treatment for 6 h in the presence of an exogenous source of metabolic activation (cofactor supplemented S9 liver fraction); and (iii) extended treatment for 24 h.
CHO-K1 (Chinese hamster ovary cells, ATCC Item Number CCL-61) were cultured in DMEM F-12 containing 10% foetal bovine serum and 100 units/ml penicillin/100 μg/ml streptomycin (all from Sigma-Aldrich, St Louis, USA). Cells were seeded at 3000 cells/well in a collagen-coated 96-well plate in 100 μl. After 24 h, cells were incubated with CellTracker Orange CMTMR cellular dye solution (Invitrogen, Waltham, USA) for 1 h. Cells were then treated with compounds for 6 h, with or without S9 metabolic activation, or 24 h without S9 metabolic activation. […] After the 6-h compound treatment, cells were incubated with cytochalasin B (Alfa Aesar, Kandel, Germany) for 24 h. In case of 24-h treatment, cells were incubated with compounds in the presence of cytochalasin B and harvested after treatment. Benzo(a)pyrene, mitomycin C, and colchicine were used as positive controls for 6 h, with or without metabolic activation or 24 h treatments, respectively. […] After several washes with BupH-modified DPBS, cells were analysed in an Operetta High-Content Imaging System (PerkinElmer, Waltham, USA). […] Statistical significance was determined with the ANOVA test with significance level adjusted to p < 0.05.

[7] = test system: zebrafish embryos; conditions: in vivo
Protocol: (§2) Zebrafish embryos obtained and maintained as described previously for toxicity determination were used to determine (I) terato-carcinogenesis assayed as previously informed (Selderslaghs et al. [2009], [2012]) with modifications. In brief, embryos were incubated for 0 hpf up to 120 hpf in the presence and absence of tested compounds. Each condition was assayed in triplicate with 12 embryos per condition per replicate. The appearance of selected characteristics and malformations with respect to normal development were quantified for the eyes, otoliths, heart, circulation, hatching, skeletal deformities, and body position. For each concentration tested, we assessed the mortality and the presence of malformations at 24, 48, 72, 96, and 120 hpf using a light microscope. When possible, the lethal effects (LC50) and terato-carcinogenic effects (EC50) were determined using the ToxRat software. Based on these values, a teratogenic index (TI) was calculated as LC50/EC50. Based on previous studies, we considered a compound to be a teratogen when TI > 2 at 120 hpf. When no TI could be calculated due to no malformations induction to a degree extensive enough to calculate the EC50 in the presence of high toxicity, the compound was considered a non-teratogen. (II) Neurotoxicity was assayed by evaluating the locomotor activity in embryos exposed to the tested compounds from 0 to 120 hpf using Zebrabox and Zebralab (ViewPoint). We tested three concentrations (24 embryos per concentration) below the NOEC to avoid readily toxic concentrations. After incubation with tested compounds for 120 hs in 96-well plates, the activity of larvae in response to transitions from dark to light was evaluated. The protocol involved an initial 10 min acclimation period inside the Zebrabox, followed by three cycles of light–dark of 10 min each. After the end of each cycle, the integrated activity of each embryo was registered. Statistical analysis was done using ANOVA, followed by the Tukey post hoc test. Differences were considered significant when p < 0.05. Dead embryos were not considered in the analysis. (III) The endocrine-disrupting effect in zebrafish embryos was assayed by real-time PCR as previously reported (Jarque et al. [2019]) with modifications. In brief, 0 hpf embryos (12 embryos per condition in triplicate) were incubated with selected compounds for up to 120 hpf. After incubation, treated (embryos incubated at the concentration right below the NOEC) and control embryos were collected in RNA later and kept at − 20°C until use. RNA was extracted from the samples using the RNeasy Mini Kit (QIAGEN) and was followed by cDNA synthesis using random primers and the AffinityScript Multi Temperature cDNA Synthesis Kit (Agilent Technologies). Finally, real-time PCR was performed for eight target genes to obtain data on the estrogenic (cytochrome P450 family 19 subfamily A member 1: cyp19a1b, and vitellogenin: vtg1), androgenic (cytochrome P450 family 2 subfamily W member 1: cyp2k22, and cytosolic sulphotransferase 3: sult2st3), and thyroid hormone (thyroid peroxidase: tpo, thyroid hormone receptor alpha: tra, transthyretin: ttr, and iodothyronine deiodinase 2: dio2) effect of the tested compounds. Significant changes in gene expression between controls and treated samples were considered as a potential endocrine-disrupting effect.

[8] = test system: zebrafish embryos; conditions: in vivo; remark: listed apart in the source
Text: In REACH, most of the mammalian tests for chemical safety assessment are related to reproductive toxicity (ECHA [2020]; Rovida and Hartung [2009]; Sellick [2011]) and consider complex molecular and cellular mechanisms determined in long-term experiments with very low throughput. To avoid the use of animals and to assay reproductive toxicity in a relevant 'non-animal' model adhering to the 3Rs rule, we used zebrafish embryos up to 120 hpf. Up to this developmental stage, the embryos are not considered animals according to European legislation (Sellick [2011]). When they reach the stage of independent feeding, zebrafish embryos become subject to regulations for animal experimentation. We performed a set of previously described experiments to cover a wide range of potential reprotoxic effects, including terato-carcinogenesis, developmental neurotoxicity, and endocrine disruption.
as §2, with “Technologies).” for “Technologies). Finally, real-time PCR was performed for eight target genes to obtain data on the estrogenic (cytochrome P450 family 19 subfamily A member 1: cyp19a1b, and vitellogenin: vtg1), androgenic (cytochrome P450 family 2 subfamily W member 1: cyp2k22, and cytosolic sulphotransferase 3: sult2st3), and thyroid hormone (thyroid peroxidase: tpo, thyroid hormone receptor alpha: tra, transthyretin: ttr, and iodothyronine deiodinase 2: dio2) effect of the tested compounds. Significant changes in gene expression between controls and treated samples were considered as a potential endocrine-disrupting effect.”

[9] = test system: Bhas 42 cell line; test: Bhas 42 cell transformation assay (carcinogenesis); type: cell-based
Protocol: This assay was carried out by adapting the in vitro Bhas 42 cell transformation assay method described in the OECD Guidance Document No. 231 ([2017]) based on the work of Sasaki et al. ([2014]).
It consists of two assays with a different test compound addition schedule to identify compounds with initiating activity (tumour initiators) or promoting activity (tumour promoters). Previously, a cell growth assay for 7 days is performed to set the assay doses of the CTA and another cell growth assay is concurrently performed to the CTA to verify that the selected doses meet the acceptance criteria for the tests.
The carcinogenesis potential of the compound was assayed by means of measuring the frequency of transformed foci (morphologically altered cells that form discrete anchorage-independent colonies) in the Bhas 42 cell line, which can be extrapolated to an assessment of carcinogenic potential. In the transformation assay, the incubation of compounds with two different treatment schedules allowed to identify the initiating or promoting carcinogenic potential of the compounds.

[10] = test system: zebrafish embryos; conditions: FET assay
Protocol: as §1

In the case of `Clc1cc(Cl)c(Cl)c(Cl)c1` [1,2,3,5-Tetrachlorobenzene], the Experimental result ([1]; endocrine disruptor yes/no) is reported as “No”, the Bioaccumulation [2] is reported as “Yes” and the “Potential PBT” value [3] is reported as “YES”. The “Potential PBT” value ([3]; listed as 1,2,3,5-tetrachlorobenzene) was “potential PBT compounds”, the “Bioaccumulation (logKow)” value [4] was 4.61 and the endocrine-disrupting activity ([5]; ref Chu et al. [1983], den Besten et al. [1991]) was “thyroid system affection”.
In the case of `CC1=CC(=O)[C@@H](C(C)C)CC1` [(R)-6-(isopropyl)-3-methylcyclohex-2-en-1-one], the “Micronucleus assay (M)” value [6] is reported as “Negative”, the “Reprotoxicity (R) Endocrine disruptor” value [7] is reported as “No” and the “reduction of embryo integrated activity” value [7] is reported as “up to 80%”. For the same compound, the “Reprotoxicity (R) Teratogen” value [8] was “No”.
In the case of `O=C(O)C(F)(F)C(F)(F)C(F)(F)C(F)(F)F` [Nonafluorovaleric acid], the Experimental result ([1]; endocrine disruptor yes/no) is given as “No” and the endocrine-disrupting activity ([5]; ref Coperchini et al. [2021], Croce et al. [2019]) is given as “thyroid system affection”.
For `Oc1cc(Cl)cc(Cl)c1Cl` [2,3,5-Trichlorophenol], the Experimental result [1] was “Yes”, the Bioaccumulation [2] was “No” and the “Potential PBT” value [3] was “not a potential PBT compound”. For the same compound, the “Bioaccumulation (logKow)” value [4] was 3.84.
With `Clc1cc(Cl)c(Cl)c(Cl)c1Cl` [1,2,3,4,5-Pentachlorobenzene] the Bioaccumulation [2] was “Yes”, the “Potential PBT” value ([3]; listed as Pentachlorobenzene) was “YES” and the “Potential PBT” value ([3]; listed as pentachlorobenzene) was “potential PBT compounds”. The “Bioaccumulation (logKow)” value [4] was 5.17.
With `O=[PH](O)O` [Phosphonic acid] the “Carcinogen (C)” value [9] was “No” and the Experimental result [1] was “No”.
In the case of `ClC1C(Cl)C(Cl)C(Cl)C(Cl)C1Cl` (stereo not drawn) [(1α,2α,3α,4β,5α,6β)-1,2,3,4,5,6-Hexachlorocyclohexane], the acute toxicity [10] is given as “highly toxic”, the Bioaccumulation [2] is given as “No” and the “Bioaccumulation (logKow)” value [4] is given as 3.95.
